These molecules were tested against T1, Seed linoleate 13S-lipoxygenase-1 (Glycine max, UniProt P08170) (assay: Inhibition Assay). Conditions: 25 °C.
T1 sequence (P08170 whole entry): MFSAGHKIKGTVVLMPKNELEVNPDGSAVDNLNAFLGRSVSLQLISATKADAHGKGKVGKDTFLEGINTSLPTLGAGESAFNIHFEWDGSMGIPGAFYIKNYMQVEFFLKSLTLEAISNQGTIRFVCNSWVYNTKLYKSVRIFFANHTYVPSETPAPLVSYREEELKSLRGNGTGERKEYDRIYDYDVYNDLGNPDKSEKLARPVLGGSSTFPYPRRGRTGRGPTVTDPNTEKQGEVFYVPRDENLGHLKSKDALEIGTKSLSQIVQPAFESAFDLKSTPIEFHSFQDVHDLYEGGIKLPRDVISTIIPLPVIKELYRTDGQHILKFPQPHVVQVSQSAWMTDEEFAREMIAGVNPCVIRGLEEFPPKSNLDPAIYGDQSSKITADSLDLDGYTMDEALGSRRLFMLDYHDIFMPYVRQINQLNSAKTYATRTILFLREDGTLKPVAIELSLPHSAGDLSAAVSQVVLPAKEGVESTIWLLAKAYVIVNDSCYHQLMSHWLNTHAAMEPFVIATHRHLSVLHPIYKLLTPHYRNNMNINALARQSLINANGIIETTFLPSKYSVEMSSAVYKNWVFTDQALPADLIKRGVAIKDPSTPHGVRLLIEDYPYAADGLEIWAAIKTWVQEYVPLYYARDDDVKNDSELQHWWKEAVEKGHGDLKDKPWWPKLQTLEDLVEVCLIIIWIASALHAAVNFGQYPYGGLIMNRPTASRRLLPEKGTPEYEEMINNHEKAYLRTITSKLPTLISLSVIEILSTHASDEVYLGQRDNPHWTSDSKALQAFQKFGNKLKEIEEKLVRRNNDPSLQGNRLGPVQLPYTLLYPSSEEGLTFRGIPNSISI
Procedure: soybean lipoxygenase and linoleic acid sodium salt were obtained from Sigma Chemical, Co. in St. Louis, MO. Each experiment of the in vitro assay was performed at least in triplicate and the standard deviation of absorbance was less than 10% of the mean.

Row | SMILES | IC50 [µM]
1 | O=C(O)C[C@H]1CCC(=O)[C@@H]1C/C=C/CCO[C@H]1OC(CO)[C@H](O)C(O)[C@H]1O (some centres undefined) [12-hydroxy-jasmonic acid 12-O-B-glucoside, 4] | 560
2 | O=C(/C=C/c1ccc(O)c2c1C(C(=O)O[C@@H](Cc1ccc(O)c(O)c1)C(=O)O)[C@@H](c1ccc(O)c(O)c1)O2)O[C@H](Cc1ccc(O)c(O)c1)C(=O)O (some centres undefined) [Lithospermic acid, 3] | 1000
3 | O=C(/C=C/c1ccc(O)c(O)c1)O[C@H](Cc1ccc(O)c(O)c1)C(=O)O [Rosmarinic acid, 2] | 1150
4 | CC(C)C1=C[C@H](O)[C@@](C)(O[C@@H]2OC(CO)[C@@H](O)[C@H](O)C2O)CC1 (some centres undefined) [p-menth-3-ene-1,2-diol 1-O-B-glucopyranoside, 5] | 360

Reference: BindingDB's records for doi:10.1080/14756360600991017 (University of Athens, 2007)
